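Dose response: 5 concentrations. Exposure: 48 h. Format: 96-well plates. Endpoint: linear interpolation; highest concentration if not reached. The concentration for 50% growth inhibition is given as GI50.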 Active and inactive are the calls of the source. No stated cut-off is given here; in the data, active = GI50 up to about 1.1 µM and inactive = higher.
Assays:
Assay in all cases: NCI anticancer screen, dose series, 48 h
RXF 631 = test system: RXF 631
LXFL 529 = test system: LXFL 529
HOP-18 = test system: HOP-18
DMS-114 = test system: DMS-114
M19-MEL = test system: M19-MEL
DMS-273 = test system: DMS-273
XF498 = test system: XF498
KM-20L2 = test system: KM-20L2
SNB-78 = test system: SNB-78

Measured: GI50

CC(C)(C)CI
inactive: RXF 631 32.3 µM | LXFL 529 33.3 µM | HOP-18 > 10 µM | DMS-114 19.7 µM | M19-MEL 23 µM | DMS-273 15.1 µM | XF498 18.5 µM | KM-20L2 32.2 µM | SNB-78 32.1 µM

O=C1C=C[C@@H](COC2OC(CO)C(O)C(O)C2O)O1 (some centres not stated)
inactive: HOP-18 68.2 µM | DMS-114 14.1 µM | M19-MEL 12.8 µM | DMS-273 14.1 µM | XF498 16.6 µM

O=C(O)c1ccc([Se][Se]c2ccc(C(=O)O)cc2)cc1
inactive: RXF 631 19 µM | LXFL 529 23 µM | HOP-18 29.4 µM | DMS-114 20.6 µM | M19-MEL 19.5 µM | DMS-273 21.9 µM | XF498 31.7 µM | KM-20L2 33 µM | SNB-78 18.7 µM

C=CCN1C(N)=C(C(N)=O)S/C1=C1/SC(=S)N(c2ccc(C)cc2)C1=O
inactive: LXFL 529 > 100 µM | HOP-18 61.9 µM | M19-MEL > 100 µM

CC1(C)CCCC2(C)[C@@H]1CC[C@]13C[C@](C)(CC[C@@H]21)[C@@H]3CO (some centres not stated)
inactive: RXF 631 > 100 µM | LXFL 529 > 100 µM | DMS-114 > 100 µM | M19-MEL > 100 µM | DMS-273 > 100 µM | XF498 > 100 µM | KM-20L2 > 100 µM | SNB-78 > 100 µM

COc1ccc(CNc2nc3cc(C(F)(F)F)ccc3nc2C)cc1OC
inactive: LXFL 529 35.8 µM | M19-MEL 32.8 µM | DMS-273 20 µM | XF498 35.3 µM | KM-20L2 44.1 µM | SNB-78 12.2 µM

CC(O)C(O)C(N)CC=O (configuration not stated)
inactive: HOP-18 > 500 µM | DMS-114 > 500 µM | M19-MEL > 500 µM | DMS-273 > 500 µM | XF498 > 129 µM | KM-20L2 > 500 µM | SNB-78 > 482 µM

O=C(CCl)NC(Cc1ccc(F)cc1)C(=O)O (configuration not stated)
inactive: HOP-18 > 100 µM | DMS-114 > 100 µM | M19-MEL > 100 µM | DMS-273 > 100 µM | XF498 > 100 µM | KM-20L2 > 100 µM | SNB-78 > 100 µM

CC(C)OP(=O)(OC(C)C)/C(=N/Nc1ccc([N+](=O)[O-])cc1)NCCO
inactive: LXFL 529 38.4 µM | DMS-114 90.6 µM | M19-MEL > 100 µM | DMS-273 > 100 µM | XF498 > 100 µM | KM-20L2 85.7 µM | SNB-78 99.8 µM

COc1cc(Nc2c3ccccc3nc3ccccc23)ccc1NS(C)(=O)=O
inactive: LXFL 529 4.8 µM | HOP-18 13.3 µM | DMS-114 6.58 µM | M19-MEL 5.93 µM | KM-20L2 4.46 µM | SNB-78 7.67 µM

From ChEMBL document CHEMBL1201862, “PubChem BioAssay data set” (2004)
